Source: patent publication US20260083865A1, “PROSTATE SPECIFIC MEMBRANE ANTIGEN (PSMA) LIGANDS AND USE THEREOF” (priority 2022, published 2026)
Numbered stars: 1 amine (or outer) side, 2 acyl side, 3 side chain; on linkers, the order of the positions; unused ones are H or OH. Bridge positions count the residues as written; N and C are the ends. Square brackets hold non-standard residues; d marks the D form. Peptide text beside a SMILES is read from it. * marks the point of attachment. DOTA = O=C(O)CN1CCN(CC(=O)O)CCN(CC(=O)*)CCN(CC(=O)O)CC1; Trp(5-Cl) = N[C@@H](Cc1c[nH]c2ccc(Cl)cc12)C(=O)O; Phe(4-Cl) = N[C@@H](Cc1ccc(Cl)cc1)C(=O)O; Arg(Me) = CNC(=N)NCCC[C@H](N)C(=O)O; hArg = N=C(N)NCCCC[C@H](N)C(=O)O; X1 = O=C(CC1CCN([*:1])CC1)[*:2]; Lys(Me) = CNCCCC[C@H](N)C(=O)O; d(αMeS) = C[C@@](N)(CO)C(=O)O; Tle = CC(C)(C)[C@H](N)C(=O)O; 4Abz = Nc1ccc(C(=O)O)cc1; Nle = CCCC[C@H](N)C(=O)O; Aib = CC(C)(N)C(=O)O; Ahx = NCCCCCC(=O)O; GABA = NCCCC(=O)O

What was measured:
[1] = target: T1, PSMA-expressing C4-2 cells (Homo sapiens, UniProt Q04609); assay: FACS binding assay (competition with 50 nM PSM-0183); conditions: FACS binding, PSMA-expressing C4-2 cells, pIC50 category; for IC50: read-out: pIC50 [C4-2] CAT (converted)
T1 construct: PSMA-expressing C4-2 cells (ATCC, Cat. No. CRL-3314) were cultured in RPMI-1640; host or cells: C4-2 cells
T1 sequence (Q04609 whole entry): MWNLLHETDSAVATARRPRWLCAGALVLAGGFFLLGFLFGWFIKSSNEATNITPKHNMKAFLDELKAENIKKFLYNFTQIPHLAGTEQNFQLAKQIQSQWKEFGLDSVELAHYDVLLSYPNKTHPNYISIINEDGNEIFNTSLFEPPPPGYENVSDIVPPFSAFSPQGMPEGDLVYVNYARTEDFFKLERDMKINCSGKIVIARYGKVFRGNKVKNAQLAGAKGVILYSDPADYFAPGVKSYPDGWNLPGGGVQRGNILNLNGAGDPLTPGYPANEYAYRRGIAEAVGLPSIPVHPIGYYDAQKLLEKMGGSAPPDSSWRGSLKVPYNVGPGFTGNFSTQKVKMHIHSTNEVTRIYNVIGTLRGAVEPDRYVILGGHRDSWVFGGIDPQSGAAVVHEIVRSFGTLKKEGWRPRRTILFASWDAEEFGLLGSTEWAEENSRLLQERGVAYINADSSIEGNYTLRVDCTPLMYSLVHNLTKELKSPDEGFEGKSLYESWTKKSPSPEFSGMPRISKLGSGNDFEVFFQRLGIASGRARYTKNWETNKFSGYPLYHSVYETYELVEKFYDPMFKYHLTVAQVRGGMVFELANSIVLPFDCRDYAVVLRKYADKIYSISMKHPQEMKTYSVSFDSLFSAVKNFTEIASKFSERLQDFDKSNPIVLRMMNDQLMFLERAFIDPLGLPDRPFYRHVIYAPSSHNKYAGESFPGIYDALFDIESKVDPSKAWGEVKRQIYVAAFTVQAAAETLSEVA
Method in brief: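 C4-2 cells were incubated 1 h at 4 °C with 50 nM AF488-labelled peptide PSM-0183 plus increasing test compound concentrations, then washed twice in ice-cold buffer. Median fluorescence in the AF488 channel was read by flow cytometry. IC50/pIC50 was derived by 4PL fitting of MFI versus concentration.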

[2] = target: T2, Fc-fusion protein of human PSMA (hPSMA-Fc) (Homo sapiens, UniProt Q04609); assay: Surface plasmon resonance assay (Biacore T200, single cycle kinetic); format: binding; conditions: PSMA SPR assay, hPSMA-Fc, 25° C.; pKD category; read-out: pKD CAT (converted)
T2 construct: purchased Acro Biosystems PSA-H5264
T2 sequence (Q04609 44-750 limits assumed): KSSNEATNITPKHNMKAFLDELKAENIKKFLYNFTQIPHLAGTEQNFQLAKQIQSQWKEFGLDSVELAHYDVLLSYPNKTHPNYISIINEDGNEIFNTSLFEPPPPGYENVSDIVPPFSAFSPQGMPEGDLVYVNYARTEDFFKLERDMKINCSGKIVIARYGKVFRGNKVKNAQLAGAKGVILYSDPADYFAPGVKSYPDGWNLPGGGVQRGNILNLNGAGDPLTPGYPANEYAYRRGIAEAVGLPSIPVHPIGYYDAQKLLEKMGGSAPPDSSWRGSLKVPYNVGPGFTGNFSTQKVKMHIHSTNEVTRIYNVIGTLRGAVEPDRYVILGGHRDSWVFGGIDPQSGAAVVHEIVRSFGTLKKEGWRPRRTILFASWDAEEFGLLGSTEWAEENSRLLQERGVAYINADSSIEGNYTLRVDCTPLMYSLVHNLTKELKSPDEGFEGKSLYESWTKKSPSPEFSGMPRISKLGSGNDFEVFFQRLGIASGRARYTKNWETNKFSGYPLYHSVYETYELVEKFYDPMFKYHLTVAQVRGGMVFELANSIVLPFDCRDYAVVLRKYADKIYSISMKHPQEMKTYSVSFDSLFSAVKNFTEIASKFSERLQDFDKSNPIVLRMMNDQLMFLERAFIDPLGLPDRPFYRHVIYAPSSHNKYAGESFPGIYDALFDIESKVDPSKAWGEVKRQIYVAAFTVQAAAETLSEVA
Method in brief: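 hPSMA-Fc was captured (~1000 RU) on an Fc-binding-peptide CM5 chip, and compounds were run in single cycle kinetic mode at 25° C in HBST with 0.1% DMSO. Double-blank-corrected sensorgrams were fitted to a 1:1 Langmuir model to give KD, reported as pKD.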

Compound | IC50 [1] [nM] | Kd [2] [nM] | pIC50 [C4-2] CAT [1]
CNCCCC[C@@H]1NC(=O)[C@@H](NC(=O)[C@H](Cc2c[nH]c3ccc(Cl)cc23)NC(=O)C(C)(C)NC(=O)[C@@H](NC(=O)CC2CCN(C(=O)CN3CCN(CC(=O)O)CCN(CC(=O)O)CCN(CC(=O)O)CC3)CC2)[C@@H](C)O)CSSC[C@@H](C(=O)N[C@H](C(=O)N[C@H](C(N)=O)[C@@H](C)O)C(C)(C)C)NC(=O)[C@H](CC(N)=O)NC(=O)C(C)(C)NC(=O)[C@H](CCCNC(=N)NC)NC1=O [PSM-0308, DOTA-Cmp-Thr-Aib-5Clw-[Cys-Lys(Me)-Arg(Me)-Aib-Asn-Cys]-Tle-Thr-NH2] ({DOTA}-[X1]T[Aib][Trp(5-Cl)]C[Lys(Me)][Arg(Me)][Aib]NC[Tle]T-NH2; disulfide 5-10) | 200 to 1260 | 126 to 501 | 
C[C@@H](O)[C@H](NC(=O)[C@@H](NC(=O)[C@@H]1CSSC[C@H](NC(=O)[C@H](Cc2ccc(Cl)cc2)NC(=O)C(C)(C)NC(=O)CCCCCNC(=O)CN2CCN(CC(=O)O)CCN(CC(=O)O)CCN(CC(=O)O)CC2)C(=O)N[C@@H](CCCCN)C(=O)N[C@@H](CCCNC(=N)N)C(=O)NC(C)(C)C(=O)N[C@@H](CC(N)=O)C(=O)N1)C(C)(C)C)C(N)=O [PSM-0310, DOTA-Ahx-Aib-Pcf-[Cys-Lys-Arg-Aib-Asn-Cys]-Tle-Thr-NH2] ({DOTA-Ahx}-[Aib][Phe(4-Cl)]CKR[Aib]NC[Tle]T-NH2; disulfide 3-8) | < 200 | < 12.6 | 
CCCC[C@H](NC(=O)[C@@H]1CSSC[C@H](NC(=O)[C@H](Cc2ccccc2)NC(=O)[C@H](C)NC(=O)[C@@H](NC(C)=O)[C@@H](C)O)C(=O)N[C@@H](CCCCN)C(=O)N[C@@H](CCCNC(=N)N)C(=O)N[C@@H](C)C(=O)N[C@@H](CC(N)=O)C(=O)N1)C(=O)N[C@H](C(=O)NCCCC(=O)O)[C@@H](C)O [PSM-0313, Ac-Thr-Ala-Phe-[Cys-Lys-Arg-Ala-Asn-Cys]-Nle-Thr-Gab-OH] (Ac-TAFCKRANC[Nle]T[GABA]-OH; disulfide 4-9) | 200 to 1260 | 126 to 501 | 
C[C@@H](O)[C@H](NC(=O)[C@@H](NC(=O)[C@@H]1CSSC[C@H](NC(=O)[C@H](Cc2ccc(Cl)cc2)NC(=O)C(C)(C)NC(=O)[C@@H](NC(=O)CC2CCN(C(=O)CN3CCN(CC(=O)O)CCN(CC(=O)O)CCN(CC(=O)O)CC3)CC2)[C@@H](C)O)C(=O)N[C@@H](CCCCN)C(=O)N[C@@H](CCCNC(=N)N)C(=O)N[C@](C)(CO)C(=O)N[C@@H](CC(N)=O)C(=O)N1)C(C)(C)C)C(N)=O [PSM-0314, DOTA-Cmp-Thr-Aib-Pcf-[Cys-Lys-Arg-ams-Asn-Cys]-Tle-Thr-NH2] ({DOTA}-[X1]T[Aib][Phe(4-Cl)]CKR[d(αMeS)]NC[Tle]T-NH2; disulfide 5-10) | < 200 | < 12.6 | 
CC(=O)N[C@H](C(=O)NC(C)(C)C(=O)N[C@@H](Cc1ccccc1)C(=O)N[C@H]1CSSC[C@@H](C(=O)N[C@H](C(=O)N[C@H](C(=O)N[C@@H](CC(=O)O)C(N)=O)[C@@H](C)O)C(C)(C)C)NC(=O)[C@H](CC(N)=O)NC(=O)[C@H](C)NC(=O)[C@H](CCCNC(=N)N)NC(=O)[C@H](CCCCN)NC1=O)[C@@H](C)O [PSM-0315, Ac-Thr-Aib-Phe-[Cys-Lys-arg-Als-Asn-Cys]-Tle-Thr-Asp-NH2] (Ac-T[Aib]FCKRANC[Tle]TD-NH2; disulfide 4-9) |  | 12.6 to 126 | A (pIC50 values >6.7)
C[C@@H](O)[C@H](NC(=O)[C@@H](NC(=O)[C@@H]1CSSC[C@H](NC(=O)[C@H](Cc2ccccc2)NC(=O)C(C)(C)NC(=O)c2ccc(NC(=O)CN3CCN(CC(=O)O)CCN(CC(=O)O)CCN(CC(=O)O)CC3)cc2)C(=O)N[C@@H](CCCCN)C(=O)N[C@@H](CCCNC(=N)N)C(=O)NC(C)(C)C(=O)N[C@@H](CC(N)=O)C(=O)N1)C(C)(C)C)C(N)=O [PSM-0316, DOTA-Pab-Aib-Phe-[Cys-Lys-Arg-Aib-Asn-Cys]-Tle-Thr-NH2] ({DOTA-4Abz}-[Aib]FCKR[Aib]NC[Tle]T-NH2; disulfide 3-8) | < 200 | < 12.6 | 
C[C@@H](O)[C@H](NC(=O)[C@@H](NC(=O)[C@@H]1CSSC[C@H](NC(=O)[C@H](Cc2ccc(Cl)cc2)NC(=O)C(C)(C)NC(=O)[C@@H](NC(=O)CC2CCN(C(=O)CN3CCN(CC(=O)O)CCN(CC(=O)O)CCN(CC(=O)O)CC3)CC2)[C@@H](C)O)C(=O)N[C@@H](CCCCN)C(=O)N[C@@H](CCCCNC(=N)N)C(=O)NC(C)(C)C(=O)N[C@@H](CC(N)=O)C(=O)N1)C(C)(C)C)C(N)=O [PSM-0317, DOTA-Cmp-Thr-Aib-Pcf-[Cys-Lys-Har-Aib-Asn-Cys]-Tle-Thr-NH2] ({DOTA}-[X1]T[Aib][Phe(4-Cl)]CK[hArg][Aib]NC[Tle]T-NH2; disulfide 5-10) | < 200 | < 12.6 | 
